According to patent US20100069366A1, “ANTIBACTERIAL QUINOLINE DERIVATIVES” (JANSSEN-CILAG, priority 2006, published 2010):
In brackets after ≈: the same amount, converted by molar mass. Read-outs that look alike come from different tables or passages of the source.

Key:
Format in all cases: cell-based
M. Smegmatis ATCC607 = experiment: In-vitro anti-bacterial activity against strain M. smegmatis ATCC607; conditions: for IC90: Mycolicibacterium smegmatis
Protocol: Flat-bottom, sterile 96-well plastic microtiter plates were filled with 180 μl of sterile deionized water, supplemented with 0.25% BSA. Subsequently, stock solutions (7.8× final test concentration) of compounds were added in 45 μl volumes to a series of duplicate wells in column 2 so as to allow evaluation of their effects on bacterial growth. Serial five-fold dilutions (45 μl in 180 μl) were made directly in the microtiter plates from column 2 to 11 using a customised robot system (Zymark Corp., Hopkinton, Mass.). Pipette tips were changed after every 3 dilutions to minimize pipetting errors with high hydrophobic compounds. Untreated control samples with (column 1) and without (column 12) inoculum were included in each microtiter plate. Approximately 250 CFU per well of bacteria inoculum, in a volume of 100 μl in 2.8× Mueller-Hinton broth medium, was added to the rows A to H, except column 12. The same volume of broth medium without inoculum was added to column 12 in row A to H. The cultures were incubated at 37° C. for 48 hours in a humidified 5% CO2 atmosphere (incubator with open air valve and continuous ventilation). At the end of incubation, two days after inoculation, the bacterial growth was quantitated fluorometrically. Therefore Alamar Blue (10×) was added to all wells in a volume of 20 μl and plates were incubated for another 2 hours at […]
The fluorescence was read in a computer-controlled fluorometer (Cytofluor, Biosearch) at an excitation wavelength of 530 nm and an emission wavelength of 590 nm (gain 30).

[1] = system: Staphylococcus aureus (ATCC29213); experiment: Microtitre plate assay, IC90 determination, STA 29213
Protocol: (§1) The bacteria used in this study were grown overnight in flasks containing 100 ml Mueller-Hinton Broth (Becton Dickinson—cat. no. 275730) in sterile de-ionized water, with shaking, at 37° C. Stocks (0.5 ml/tube) were stored at −70° C. until use. Bacteria titrations were performed in microtiter plates to detect the TCID50, in which the TCID50 represents the dilution that gives rise to bacterial growth in 50% of inoculated cultures.
(§2) In general, an inoculum level of approximately 100 TCID50 was used for susceptibility testing.
(§3) Flat-bottom, sterile 96-well plastic microtiter plates were filled with 180 μl of sterile deionized water, supplemented with 0.25% BSA. Subsequently, stock solutions (7.8× final test concentration) of compounds were added in 45 μl volumes in column 2 Serial five-fold dilutions (45 μl in […]) were made directly in the microtiter plates from column 2 to reach column 11. Untreated control samples with (column 1) and without (column 12) inoculum were included in each microtiter plate. Depending on the bacteria type, approximately 10 to 60 CFU per well of bacteria inoculum (100 TCID50), in a volume of 100 μl in 2.8× Mueller-Hinton broth medium, was added to the rows A to H, except column 12. The same volume of broth medium without inoculum was added to column 12 in row A to H. The cultures were incubated at 37° C. for 24 hours under a normal atmosphere (incubator with open air valve and continuous ventilation). At the end of incubation, one day after inoculation, the bacterial growth was quantitated fluorometrically. Therefore resazurin (0.6 mg/ml) was added in a volume of 20 μl to all wells 3 hours after inoculation, and the plates were re-incubated overnight. A change in colour from blue to pink indicated the growth of bacteria. The fluorescence was read in a computer-controlled fluorometer (Cytofluor Biosearch) at an excitation wavelength of 530 nm and an emission wavelength of 590 nm. The % growth inhibition achieved by the compounds was calculated according to standard methods.

[2] = system: Streptococcus pneumoniae (ATCC6305); experiment: Microtitre plate assay, IC90 determination, SPN 6305; conditions: 90% inhibitory concentration for bacterial growth, resazurin
Protocol: as §1, §2, §3

[3] = ATCC607, 48 h, read-out: M. smegmatis IC90 (μg/ml), 90% inhibitory concentration for bacterial growth, Alamar Blue fluorescence
[4] = Staphylococcus aureus, ATCC29213, read-out: IC90 (μg/ml) STA 29213
[5] = Streptococcus pneumoniae, ATCC6305, read-out: IC90 (μg/ml) SPN 6305, Streptococcus pneumoniae ATCC6305
[6] = ATCC607, 90% inhibitory concentration for bacterial growth, 48 hours, Alamar Blue fluorescence, read-out: M. smegmatis IC90
[7] = Staphylococcus aureus ATCC29213, 90% inhibitory concentration for bacterial growth, resazurin, read-out: IC90 (μg/ml) STA 29213
[8] = Streptococcus pneumoniae ATCC6305, read-out: IC90 (μg/ml) SPN 6305
[9] = 90% inhibitory concentration for bacterial growth, 48 hours, Alamar Blue fluorescence
[10] = Staphylococcus aureus ATCC29213, 90% inhibitory concentration for bacterial growth, resazurin
[11] = Streptococcus pneumoniae ATCC6305

IC90 [1, 7]	IC90 [2, 8]	Structure (SMILES)	IC90 (M. Smegmatis ATCC607; [3])	IC90 [2, 5]	IC90 (M. Smegmatis ATCC607; [6])	also measured
–	–	CSc1nc2ccc(Br)cc2cc1C(/C(=C/CN(C)C)c1ccccc1)c1ccccc1 (stereo not shown) [Compound 4]	7.98 µg/mL (≈ 15.8 µM)	17.9 µg/mL (≈ 35.5 µM)	–	IC90 [1, 4]: 40 µg/mL (≈ 79.4 µM)
1.63 µg/mL (≈ 3.16 µM)	2.05 µg/mL (≈ 3.98 µM)	COc1nc2ccc(Br)cc2cc1C(/C(=C/Cc1ccccc1)CCN(C)C)c1ccccc1 (stereo not shown) [Compound 7]	–	–	1.63 µg/mL (≈ 3.16 µM)	–
33.8 µg/mL (≈ 79.4 µM)	6.74 µg/mL (≈ 15.8 µM)	COc1nc2ccc(Br)cc2cc1/C(=C(\C)CCN(C)C)c1ccccc1 [Compound 15]	–	–	1.35 µg/mL (≈ 3.17 µM)	–
7.82 µg/mL (≈ 15.8 µM)	1.56 µg/mL (≈ 3.16 µM)	COc1nc2ccc(Br)cc2cc1C(/C(=C\CN(C)C)c1ccsc1)c1ccccc1 (stereo not shown) [Compound 16]	–	–	1.75 µg/mL (≈ 3.55 µM)	–
17.5 µg/mL (≈ 35.5 µM)	8.78 µg/mL (≈ 17.8 µM)	COc1nc2ccc(Br)cc2cc1/C(=C(/CCN(C)C)c1ccsc1)c1ccccc1 [Compound 18]	–	–	9.85 µg/mL (≈ 20 µM)	–
–	–	Clc1ccc(/C(=C(\CCCCN2CCCCC2)c2ccccc2)c2cnc3ccccc3c2)cc1 [Compound 19]	1.52 µg/mL (≈ 3.16 µM)	–	–	–
–	–	CSc1nc2ccc(-c3ccccc3)cc2cc1C(/C(=C/CN(C)C)c1ccccc1)c1ccccc1 (stereo not shown) [Compound 20]	1.41 µg/mL (≈ 2.82 µM)	1.41 µg/mL (≈ 2.82 µM)	–	IC90 [1, 4]: 1.58 µg/mL (≈ 3.16 µM)
–	–	COc1nc2ccc(-c3ccco3)cc2cc1C(/C(=C/CN(C)C)c1cccc2ccccc12)c1ccccc1 (stereo not shown) [Compound 21]	14.8 µg/mL (≈ 28.2 µM)	23.4 µg/mL (≈ 44.7 µM)	–	IC90 [1, 4]: 41.7 µg/mL (≈ 79.4 µM)
–	–	COc1nc2ccc(-c3ccco3)cc2cc1/C(=C(/CCN(C)C)c1cccc2ccccc12)c1ccccc1 [Compound 22]	1.66 µg/mL (≈ 3.16 µM)	20.9 µg/mL (≈ 39.8 µM)	–	IC90 [1, 4]: 20.9 µg/mL (≈ 39.8 µM)
–	–	COc1nc2ccc(-c3cccnc3)cc2cc1C(=C(CCN(C)C)c1cccc2ccccc12)c1ccccc1 [Compound 41]	–	–	–	M. smegmatis IC90 (M. Smegmatis ATCC607; [9]): 3.79 µg/mL; IC90 (μg/ml) STA 29213 [1, 10]: 8.49 µg/mL (≈ 15.8 µM); IC90 (μg/ml) SPN 6305 [2, 11]: 9.53 µg/mL (≈ 17.8 µM)
–	–	COc1nc2ccc(-c3ccccc3)cc2cc1C(=C(CCn1ccnc1)c1ccccc1)c1ccccc1 [Compound 46]	–	–	–	M. smegmatis IC90 (M. Smegmatis ATCC607; [9]): 1.61 µg/mL; IC90 (μg/ml) STA 29213 [1, 10]: 9.03 µg/mL (≈ 17.8 µM); IC90 (μg/ml) SPN 6305 [2, 11]: 8.05 µg/mL (≈ 15.9 µM)
–	–	c1ccc(/C(CCCCN2CCCCC2)=C(/c2ccccc2)c2cnc3ccccc3c2)cc1 [Compound 49]	7.08 µg/mL (≈ 15.9 µM)	8.91 µg/mL (≈ 19.9 µM)	–	IC90 [1, 4]: 44.7 µg/mL (≈ 100 µM)
–	–	Clc1ccc(/C(CCCCN2CCCCC2)=C(/c2ccccc2)c2cnc3ccccc3c2)cc1 [Compound 50]	1.92 µg/mL (≈ 3.99 µM)	9.6 µg/mL (≈ 20 µM)	–	–
–	12.6 µg/mL (≈ 25.1 µM)	COc1ccc(/C(CCCCN2CCCCC2)=C(/c2ccc(C#N)cc2)c2cnc3ccccc3c2)cc1 [Compound 56]	–	–	7.95 µg/mL (≈ 15.8 µM)	–
–	–	COc1ccc(/C(=C(\CCCCN2CCCCC2)c2ccccc2)c2cnc3ccccc3c2)cc1 [Compound 57]	7.55 µg/mL (≈ 15.8 µM)	9.51 µg/mL (≈ 20 µM)	–	–
–	11.3 µg/mL (≈ 22.4 µM)	COc1ccc(/C(CCCCN2CCCCC2)=C(/c2ccc(OC)cc2)c2cnc3ccccc3c2)cc1 [Compound 59]	–	–	8.03 µg/mL (≈ 15.8 µM)	–
22.5 µg/mL (≈ 35.5 µM)	–	COc1nc2ccc(Br)cc2cc1C(/C(=C\CCCN1CCCN(C)CC1)c1ccc2ccccc2c1)c1ccccc1 (stereo not shown) [Compound 62]	–	–	8.97 µg/mL (≈ 14.1 µM)	–
2.25 µg/mL (≈ 3.55 µM)	–	COc1nc2ccc(Br)cc2cc1C(/C(=C/CCCN1CCCN(C)CC1)c1ccc2ccccc2c1)c1ccccc1 (stereo not shown) [Compound 63]	–	–	3.57 µg/mL (≈ 5.63 µM)	–
